Among the data in ChEMBL document CHEMBL5346875, “Annual review of KRAS inhibitors in 2022” (Eur J Med Chem, 2023) are IC50, Activity and DC50 values, retold here.

The subject of one test is NCI-H23. Briefly: Antiproliferative activity against human NCI-H23 cells harboring KRAS G12C mutant assessed as inhibition of cell growth. Format: functional, cell-based.
The subject of test [1] is NCI-H358. Briefly: Antiproliferative activity against human NCI-H358 cells harboring KRAS G12C mutant assessed as inhibition of cell growth. Format: functional, cell-based.
Test [2] can be described thus: Inhibition of ERK phosphorylation in human NCI-H358 cells harboring KRAS G12C mutant by Western blot analysis. The class given is cell-based. On the technique in general: A western blot detects proteins with antibodies after separation by electrophoresis.
Test [3] has as its system NCI-H358. The test is described as follows: Antiproliferative activity against human NCI-H358 cells harboring KRAS G12C mutant assessed as inhibition of cell growth by resazurin dye based assay. The class given is functional. In general terms: Alamar Blue is a resazurin reagent that responds to reducing activity.
Test [4] can be described thus: Antiproliferative activity against human KMS-20 cells harboring KRAS G12S mutant assessed as inhibition of cell growth incubated for 72 hrs by CellTiter-Glo luminescent assay. Format: functional, cell-based. As to conditions: KMS-20, 72 h. (In ATP-based viability assays light output follows the ATP content of the culture.)
In test [5] the test system is BaF3. The test is described as follows: Antiproliferative activity against mouse BaF3 cells harboring wild type KRAS assessed as inhibition of cell growth incubated for 72 hrs by CellTiter-Glo luminescent assay. The class given is functional, cell-based. As to conditions: BaF3, 72 h.
Test [6] has as its system BaF3. Briefly: Antiproliferative activity against mouse BaF3 cells harboring KRAS G12S mutant assessed as inhibition of cell growth incubated for 72 hrs by CellTiter-Glo luminescent assay. Format: functional, cell-based. As to conditions: BaF3, 72 h.
Test [7] has as its system GTPase KRas (Homo sapiens), P01116 [G12S]. The test is described as follows: Covalent modification of GDP-bound recombinant human KRAS G12S mutant at 10 uM incubated for 10 mins by mass spectrometry analysis relative to control.
In the next test the target is GTPase KRas (Homo sapiens, UniProt P01116, G12S). The test is described as follows: Inhibition of GTP-bound KRAS G12S mutant in human A549 cells incubated for 2 hrs by immunoblot analysis. Format: cell-based.
Chain of GTPase KRas (P01116 whole entry G12S): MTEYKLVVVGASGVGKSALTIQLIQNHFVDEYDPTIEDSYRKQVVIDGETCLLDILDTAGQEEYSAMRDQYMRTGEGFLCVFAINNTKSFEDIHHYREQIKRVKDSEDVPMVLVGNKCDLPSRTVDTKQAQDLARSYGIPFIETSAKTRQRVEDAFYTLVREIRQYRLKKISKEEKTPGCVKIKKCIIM
Test [8] concerns the target Protein cereblon/GTPase KRas (Homo sapiens, UniProt P01116+Q96SW2, G12C). The test is described as follows: PROTAC activity at CRBN/KRAS G12C mutant in human NCI-H358 cells assessed as induction of KRAS G12C degradation. Format: cell-based.
In test [9] the test system is GTPase KRas (Homo sapiens), P01116 [G12S]. Briefly: Covalent modification of GDP-bound recombinant human KRAS G12S mutant at 10 uM incubated for 1 hr by mass spectrometry analysis relative to control.
Chain of GTPase KRas (Homo sapiens), P01116 [G12S] (P01116 whole entry G12S): as above
For test [10] the test system is unchanged. Briefly: Covalent modification of GDP-bound recombinant human KRAS G12S mutant at 10 uM incubated for 12 hrs by mass spectrometry analysis relative to control.

Chain of Protein cereblon/GTPase KRas (P01116 whole entry G12C, stated change not applied): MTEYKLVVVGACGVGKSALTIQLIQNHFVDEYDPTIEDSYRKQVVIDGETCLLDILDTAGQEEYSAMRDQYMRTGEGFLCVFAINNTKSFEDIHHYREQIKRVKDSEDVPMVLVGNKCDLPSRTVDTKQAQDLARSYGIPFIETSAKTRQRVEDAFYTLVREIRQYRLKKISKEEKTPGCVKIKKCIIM
Chain of Protein cereblon/GTPase KRas (Q96SW2 whole entry, stated change not applied): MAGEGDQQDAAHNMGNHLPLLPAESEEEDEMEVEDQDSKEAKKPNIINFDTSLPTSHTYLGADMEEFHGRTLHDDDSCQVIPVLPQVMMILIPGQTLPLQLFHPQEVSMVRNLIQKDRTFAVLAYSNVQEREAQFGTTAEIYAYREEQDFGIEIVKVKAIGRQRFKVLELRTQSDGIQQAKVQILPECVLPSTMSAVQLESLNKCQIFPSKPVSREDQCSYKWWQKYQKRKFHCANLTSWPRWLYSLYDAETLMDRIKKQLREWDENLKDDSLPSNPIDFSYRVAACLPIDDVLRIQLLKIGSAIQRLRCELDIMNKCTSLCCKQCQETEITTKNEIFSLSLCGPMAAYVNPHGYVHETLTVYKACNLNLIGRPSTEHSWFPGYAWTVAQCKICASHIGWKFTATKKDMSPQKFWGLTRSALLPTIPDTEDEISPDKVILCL

By IC50 is commonly meant the concentration needed to halve the response being measured. `C=C(C(=O)N1CCN(c2ncnc3c(F)c(-c4cc(Cl)ccc4OC)c(Cl)cc23)[C@H](C)C1)C(F)(F)F`: the results for the IC50 in the test on NCI-H23 and in the test on NCI-H358 [1] were 1.55 µM and 0.78 µM, respectively.

For the molecule `C=CC(=O)N1CC2(CC(n3nc(-c4ccc5c(cnn5C)c4)c(-c4c(Cl)c(C)cc5[nH]ncc45)c3C)C2)C1` [OPNURASIB], the IC50 worked out at 0.018 µM in test [2] and 0.019 µM in the test on NCI-H358 [3].

Consider `O=C1O[C@H]2CN(c3nc(OCC45CCCN4CCC5)nc4c(F)c(-c5cccc6cccc(Cl)c56)ncc34)CC[C@@H]12`, for which the IC50 in [4] was found to be 7.5 µM; in the test with BaF3 [5], 12.5 µM; with BaF3 [6], 2.4 µM; against GTPase KRas, 3 µM. The Activity in test [7] amounted to 100%.

The term DC50 denotes the concentration at which degradation of the target reaches its halfway point. As for `COc1cc(Cl)c(-c2cc(Cl)ccc2Cl)cc1C(=O)N1CCN(C(=O)/C=C\C(=O)NCCCCCCNc2cccc3c2C(=O)N(C2CCC(=O)NC2=O)C3=O)CC1` (stereo not drawn), the 50% degradation concentration (DC50) in [8] was found to be 1.25 µM. Besides, in the test with NCI-H358 [1], the IC50 turned out to be 17.4 µM.

As to `CN1CCC[C@H]1COc1nc2c(c(N3CCC4C(=O)OC4C3)n1)CCN(c1cccc3cccc(Cl)c13)C2` (stereo partly drawn), the figures for the Activity in test [9] and in test [10] were 64% and 100%, respectively.
